Laboratory results published in patent US20120122860A1, “SOLID FORMS OF SULFONAMIDES AND AMINO ACIDS” (Plexxikon, Inc., priority 2009, published 2012).
pIC50: −log10 of the molar value.

Key:
C-Raf = C-Raf (Homo sapiens, UniProt P04049); test: Kinase activity assay, C-Raf
Kdr = Kdr (Homo sapiens, UniProt P35968); test: Kinase activity assay, Kdr
B-Raf V600E = B-Raf V600E (Homo sapiens, UniProt P15056, V600E); test: Kinase activity assay, B-Raf V600E; assay type: biochemical; conditions: read-out: activity toward kinase B-Raf V600E, IC50
B-Raf = B-Raf (Homo sapiens, UniProt P15056); test: Kinase activity assay, B-Raf; assay type: biochemical; conditions: read-out: activity toward kinase B-Raf, IC50
Chain of B-Raf (P15056 whole entry): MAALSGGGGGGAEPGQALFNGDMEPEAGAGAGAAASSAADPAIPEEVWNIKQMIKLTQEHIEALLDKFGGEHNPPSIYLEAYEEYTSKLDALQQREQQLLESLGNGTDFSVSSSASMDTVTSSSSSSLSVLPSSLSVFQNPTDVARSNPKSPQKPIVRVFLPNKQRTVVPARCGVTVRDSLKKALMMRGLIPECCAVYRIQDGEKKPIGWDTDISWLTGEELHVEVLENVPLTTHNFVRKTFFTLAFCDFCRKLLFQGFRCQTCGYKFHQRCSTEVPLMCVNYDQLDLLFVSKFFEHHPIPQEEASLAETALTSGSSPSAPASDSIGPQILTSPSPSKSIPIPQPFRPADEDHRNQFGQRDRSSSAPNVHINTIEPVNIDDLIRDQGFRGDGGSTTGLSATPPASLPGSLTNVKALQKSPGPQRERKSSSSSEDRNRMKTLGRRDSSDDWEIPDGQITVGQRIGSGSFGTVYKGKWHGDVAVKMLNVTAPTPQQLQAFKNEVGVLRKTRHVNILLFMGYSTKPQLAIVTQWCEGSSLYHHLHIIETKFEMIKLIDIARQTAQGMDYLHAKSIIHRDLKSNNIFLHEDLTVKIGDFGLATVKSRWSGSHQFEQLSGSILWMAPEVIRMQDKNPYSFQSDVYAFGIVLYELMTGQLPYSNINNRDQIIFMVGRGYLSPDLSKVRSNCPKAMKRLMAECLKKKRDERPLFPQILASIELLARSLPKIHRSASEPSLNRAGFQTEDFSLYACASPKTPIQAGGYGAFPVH

MAP4K4 = MAP4K4 (Homo sapiens, UniProt O95819); test: Kinase activity assay, MAP4K4
Chain of MAP4K4 (O95819 whole entry): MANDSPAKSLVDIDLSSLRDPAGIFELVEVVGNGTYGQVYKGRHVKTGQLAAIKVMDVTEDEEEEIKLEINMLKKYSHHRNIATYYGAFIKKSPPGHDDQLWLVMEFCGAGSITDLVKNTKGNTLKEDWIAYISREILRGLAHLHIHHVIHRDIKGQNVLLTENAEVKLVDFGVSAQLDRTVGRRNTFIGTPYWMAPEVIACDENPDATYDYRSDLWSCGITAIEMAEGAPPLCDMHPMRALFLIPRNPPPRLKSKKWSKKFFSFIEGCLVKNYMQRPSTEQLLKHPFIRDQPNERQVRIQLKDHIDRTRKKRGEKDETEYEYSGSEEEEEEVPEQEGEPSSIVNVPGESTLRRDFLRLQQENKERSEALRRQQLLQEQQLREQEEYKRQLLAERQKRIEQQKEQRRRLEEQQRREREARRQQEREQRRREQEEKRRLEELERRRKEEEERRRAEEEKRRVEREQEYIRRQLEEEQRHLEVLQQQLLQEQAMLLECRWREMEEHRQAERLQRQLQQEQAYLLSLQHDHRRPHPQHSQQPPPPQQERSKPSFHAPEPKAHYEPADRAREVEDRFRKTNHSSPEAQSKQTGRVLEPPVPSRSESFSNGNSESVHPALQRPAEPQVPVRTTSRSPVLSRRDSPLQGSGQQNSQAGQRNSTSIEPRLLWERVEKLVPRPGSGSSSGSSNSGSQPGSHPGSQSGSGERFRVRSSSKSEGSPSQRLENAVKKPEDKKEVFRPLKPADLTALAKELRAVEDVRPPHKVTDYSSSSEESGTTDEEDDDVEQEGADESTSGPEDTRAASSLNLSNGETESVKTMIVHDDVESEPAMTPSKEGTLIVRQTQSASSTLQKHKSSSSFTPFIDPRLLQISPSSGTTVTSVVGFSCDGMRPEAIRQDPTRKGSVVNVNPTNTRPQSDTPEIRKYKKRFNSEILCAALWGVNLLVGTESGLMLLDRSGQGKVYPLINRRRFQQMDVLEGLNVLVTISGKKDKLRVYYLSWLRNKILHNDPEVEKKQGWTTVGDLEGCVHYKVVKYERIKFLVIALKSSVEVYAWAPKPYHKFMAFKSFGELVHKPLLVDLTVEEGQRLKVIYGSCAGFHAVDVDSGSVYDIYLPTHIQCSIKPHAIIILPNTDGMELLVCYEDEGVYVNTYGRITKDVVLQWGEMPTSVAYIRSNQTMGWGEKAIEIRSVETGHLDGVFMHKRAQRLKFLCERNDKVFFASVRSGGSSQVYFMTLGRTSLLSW

Src = Src (Homo sapiens, UniProt P12931); test: Kinase activity assay, Src
Chain of Src (P12931 whole entry): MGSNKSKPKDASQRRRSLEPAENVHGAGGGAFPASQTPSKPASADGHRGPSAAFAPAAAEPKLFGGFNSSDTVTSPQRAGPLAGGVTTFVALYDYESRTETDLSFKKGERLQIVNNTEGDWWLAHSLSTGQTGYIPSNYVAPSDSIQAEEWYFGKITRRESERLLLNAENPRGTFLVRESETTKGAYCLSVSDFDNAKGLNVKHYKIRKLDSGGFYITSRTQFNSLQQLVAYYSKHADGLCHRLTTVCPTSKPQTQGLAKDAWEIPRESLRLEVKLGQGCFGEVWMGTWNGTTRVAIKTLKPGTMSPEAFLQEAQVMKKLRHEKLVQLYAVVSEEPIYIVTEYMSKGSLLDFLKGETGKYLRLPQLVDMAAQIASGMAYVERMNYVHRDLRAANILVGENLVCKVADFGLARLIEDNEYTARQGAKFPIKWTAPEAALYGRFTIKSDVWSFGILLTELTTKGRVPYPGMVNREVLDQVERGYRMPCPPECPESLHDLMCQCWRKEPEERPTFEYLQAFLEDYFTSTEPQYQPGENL

Kit = Kit (Homo sapiens, UniProt P10721); test: Kinase activity assay, Kit
Chain of Kit (P10721 26-976): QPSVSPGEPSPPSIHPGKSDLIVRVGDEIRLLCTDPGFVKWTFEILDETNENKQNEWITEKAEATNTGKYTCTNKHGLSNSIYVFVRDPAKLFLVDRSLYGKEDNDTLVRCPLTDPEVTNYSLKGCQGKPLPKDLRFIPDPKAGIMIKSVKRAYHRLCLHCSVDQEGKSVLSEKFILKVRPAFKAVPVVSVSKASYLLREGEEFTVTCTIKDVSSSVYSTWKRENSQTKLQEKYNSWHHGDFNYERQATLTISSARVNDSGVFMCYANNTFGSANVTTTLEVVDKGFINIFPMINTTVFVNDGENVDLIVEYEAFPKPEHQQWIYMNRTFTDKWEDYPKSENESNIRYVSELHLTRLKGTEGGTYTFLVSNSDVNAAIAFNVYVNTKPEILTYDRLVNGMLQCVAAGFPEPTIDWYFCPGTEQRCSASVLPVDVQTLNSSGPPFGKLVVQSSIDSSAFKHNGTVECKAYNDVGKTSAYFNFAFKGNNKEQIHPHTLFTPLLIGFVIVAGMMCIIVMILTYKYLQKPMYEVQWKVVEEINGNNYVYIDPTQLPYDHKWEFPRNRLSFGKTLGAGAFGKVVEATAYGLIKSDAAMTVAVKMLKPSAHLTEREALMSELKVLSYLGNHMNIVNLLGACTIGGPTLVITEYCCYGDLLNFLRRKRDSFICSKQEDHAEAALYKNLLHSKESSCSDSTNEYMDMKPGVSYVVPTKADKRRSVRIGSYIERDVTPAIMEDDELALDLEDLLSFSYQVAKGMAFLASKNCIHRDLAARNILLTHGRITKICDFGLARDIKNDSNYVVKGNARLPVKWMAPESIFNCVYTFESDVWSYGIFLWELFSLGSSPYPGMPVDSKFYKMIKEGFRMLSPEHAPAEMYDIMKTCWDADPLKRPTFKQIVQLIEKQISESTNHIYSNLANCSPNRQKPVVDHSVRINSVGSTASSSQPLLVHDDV

Fms = Fms (Homo sapiens, UniProt P07333); test: Kinase activity assay, Fms
Chain of Fms (P07333 20-972): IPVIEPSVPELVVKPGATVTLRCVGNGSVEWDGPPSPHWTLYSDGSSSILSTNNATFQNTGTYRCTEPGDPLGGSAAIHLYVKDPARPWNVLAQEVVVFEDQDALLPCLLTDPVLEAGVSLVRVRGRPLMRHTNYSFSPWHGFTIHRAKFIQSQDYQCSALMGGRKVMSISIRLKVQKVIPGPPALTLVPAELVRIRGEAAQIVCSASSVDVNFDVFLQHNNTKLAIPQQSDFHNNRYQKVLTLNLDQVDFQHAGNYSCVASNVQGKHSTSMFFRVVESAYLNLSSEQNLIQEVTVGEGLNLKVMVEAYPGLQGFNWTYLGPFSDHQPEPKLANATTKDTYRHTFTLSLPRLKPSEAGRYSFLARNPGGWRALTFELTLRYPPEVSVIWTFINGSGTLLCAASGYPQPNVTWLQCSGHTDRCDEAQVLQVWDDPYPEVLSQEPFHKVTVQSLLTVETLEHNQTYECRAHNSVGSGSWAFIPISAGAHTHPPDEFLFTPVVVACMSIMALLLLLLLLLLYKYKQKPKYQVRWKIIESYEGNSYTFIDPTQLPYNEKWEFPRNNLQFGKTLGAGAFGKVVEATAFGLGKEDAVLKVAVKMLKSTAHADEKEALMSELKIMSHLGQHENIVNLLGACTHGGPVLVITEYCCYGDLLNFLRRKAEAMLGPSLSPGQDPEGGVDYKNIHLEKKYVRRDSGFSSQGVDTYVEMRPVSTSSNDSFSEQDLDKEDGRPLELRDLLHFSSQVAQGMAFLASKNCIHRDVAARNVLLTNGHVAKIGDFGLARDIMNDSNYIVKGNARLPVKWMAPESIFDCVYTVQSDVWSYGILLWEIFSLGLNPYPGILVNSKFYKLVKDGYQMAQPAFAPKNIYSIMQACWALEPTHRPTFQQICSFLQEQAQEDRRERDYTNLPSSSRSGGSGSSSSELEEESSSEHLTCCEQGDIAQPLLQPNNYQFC

Measured: pIC50

Chain of C-Raf (P04049 whole entry): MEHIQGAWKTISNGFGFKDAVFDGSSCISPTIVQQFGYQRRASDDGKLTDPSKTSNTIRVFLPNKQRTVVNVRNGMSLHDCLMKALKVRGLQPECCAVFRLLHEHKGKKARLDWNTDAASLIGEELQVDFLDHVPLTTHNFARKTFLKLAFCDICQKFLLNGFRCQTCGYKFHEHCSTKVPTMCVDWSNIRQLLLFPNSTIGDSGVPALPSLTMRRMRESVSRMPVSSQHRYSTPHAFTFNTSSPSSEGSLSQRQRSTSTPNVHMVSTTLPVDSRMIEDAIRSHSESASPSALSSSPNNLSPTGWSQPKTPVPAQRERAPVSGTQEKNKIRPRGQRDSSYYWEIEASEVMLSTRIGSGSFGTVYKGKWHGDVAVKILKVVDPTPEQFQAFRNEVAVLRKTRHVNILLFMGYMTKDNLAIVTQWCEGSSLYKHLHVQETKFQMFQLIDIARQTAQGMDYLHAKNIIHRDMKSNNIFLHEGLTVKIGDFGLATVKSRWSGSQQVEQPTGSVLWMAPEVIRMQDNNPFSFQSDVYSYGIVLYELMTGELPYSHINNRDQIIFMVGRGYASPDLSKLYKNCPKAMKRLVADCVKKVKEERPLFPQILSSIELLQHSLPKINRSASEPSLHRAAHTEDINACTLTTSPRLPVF

CCS(=O)(=O)Nc1ccc(F)c(C(=O)c2c[nH]c3nccc(OC)c23)c1F [P-2279, Ethanesulfonic acid [2,4-difluoro-3-(4-methoxy-1H-pyrrolo[2,3-b]pyridine-3-carbonyl)-phenyl]-amide]
≥ 5.00: C-Raf | Kdr | B-Raf V600E | B-Raf | MAP4K4

O=C(c1cccc(NS(=O)(=O)c2cccnc2)c1)c1c[nH]c2ncc(Cl)cc12 [P-2146, Pyridine-3-sulfonic acid [3-(5-chloro-1H-pyrrolo[2,3-b]pyridine-3-carbonyl)-phenyl]-amide]
≥ 5.00: Kdr | MAP4K4

CCS(=O)(=O)Nc1ccc(F)c(C(=O)c2c[nH]c3ncc(-c4ccc(Cl)cc4)cc23)c1F [P-2269, Ethanesulfonic acid {3-[5-(4-chloro-phenyl)-1H-pyrrolo[2,3-b]pyridine-3-carbonyl]-2,4-difluoro-phenyl}-amide]
≥ 5.00: Kdr | MAP4K4

O=C(c1c(F)ccc(NS(=O)(=O)c2cccnc2)c1F)c1c[nH]c2nccc(Cl)c12 [P-2074, Pyridine-3-sulfonic acid [3-(4-chloro-1H-pyrrolo[2,3-b]pyridine-3-carbonyl)-2,4-difluoro-phenyl]-amide]
≥ 5.00: Src | MAP4K4

CCCS(=O)(=O)Nc1ccc(F)c(C(=O)c2c[nH]c3ncc(-c4ccc(S(=O)(=O)N(C)C)cc4)cc23)c1F [P-2185, 4-{3-[2,6-Difluoro-3-(propane-1-sulfonylamino)-benzoyl]-1H-pyrrolo[2,3-b]pyridin-5-yl}-N,N-dimethyl-benzenesulfonamide]
not listed: MAP4K4
≥ 5.00: all other assays above

COc1ccc(S(=O)(=O)Nc2ccc(F)c(C(=O)c3c[nH]c4ncc(Cl)cc34)c2F)cc1F [P-2005, N-[3-(5-Chloro-1H-pyrrolo[2,3-b]pyridine-3-carbonyl)-2,4-difluoro-phenyl]-3-fluoro-4-methoxy-benzenesulfonamide]
not listed: MAP4K4
≥ 5.00: all other assays above

CCCS(=O)(=O)Nc1ccc(F)c(C(=O)c2c[nH]c3ncc(-c4cccc(O)c4)cc23)c1F [P-2179, Propane-1-sulfonic acid {2,4-difluoro-3-[5-(3-hydroxy-phenyl)-1H-pyrrolo[2,3-b]pyridine-3-carbonyl]-phenyl}-amide]
not listed: MAP4K4
≥ 5.00: all other assays above

CCCS(=O)(=O)Nc1ccc(F)c(C(=O)c2c[nH]c3ncc(-c4ccc(F)nc4)cc23)c1F [P-2155, Propane-1-sulfonic acid {2,4-difluoro-3-[5-(6-fluoro-pyridin-3-yl)-1H-pyrrolo[2,3-b]pyridine-3-carbonyl]-phenyl}-amide]
not listed: MAP4K4
≥ 5.00: all other assays above

CCCS(=O)(=O)Nc1ccc(F)c(C(=O)c2c[nH]c3ncc(-c4cnc(N5CCCC5)nc4)cc23)c1F [P-2219, Propane-1-sulfonic acid {2,4-difluoro-3-[5-(2-pyrrolidin-1-yl-pyrimidin-5-yl)-1H-pyrrolo[2,3-b]pyridine-3-carbonyl]-phenyl}-amide]
not listed: Kit | Fms
≥ 5.00: all other assays above

Cc1cnc2[nH]cc(C(=O)c3cccc(NS(=O)(=O)C4CCCC4)c3)c2c1 [P-2459, Cyclopentanesulfonic acid [3-(5-methyl-1H-pyrrolo[2,3-b]pyridine-3-carbonyl)-phenyl]-amide]
≥ 5.00: Kdr | Kit | MAP4K4
